Experimental data from patent US11466017B2, “Heterocyclic inhibitors of PTPN11” (priority 2011, dated 2022).

System: BT474 human breast carcinomas cell line
Assay: In vivo tumor model, BT474 (HER2+) xenograft
Settings: BT474 xenograft in CB-17/SCID mice, 100 mg/kg once per day oral gavage, 5 days on/2 days off, 4 weeks
Description: Xenografts were initiated with BT474 human breast carcinomas cell line and maintained by serial subcutaneous transplantation in CB-17/SCID mice (Charles River). On the day of tumor implant, each test mouse received a 1 mm^3 BT474 fragment implanted subcutaneously in the right flank, and tumor growth was monitored as the average size approached the target range of 100 to 150 mm3. About three weeks post-implantation, the animals were randomized and grouped based on tumor volume and mouse body weight. […] Tumors were measured in two dimensions using calipers, and volume was calculated using the formula: Tumor Volume (mm^3)=w^2× ½.

CC1(N)CCN(c2cnc3c(-c4cccc(Cl)c4Cl)n[nH]c3n2)CC1 [Example 1, 1-(3-(2,3-dichlorophenyl)-1H-pyrazolo[3,4-b]pyrazin-6-yl)-4-methylpiperidin-4-amine]
tolerability (body weight): tolerated dose | tumor growth (tumor volume): significant suppression of tumor growth
